Experimental data from article PMC5325331, “A steroid like phytochemical Antcin M is an anti-aging reagent that eliminates hyperglycemia-accelerated premature senescence in dermal fibroblasts by direct activation of Nrf2 and SIRT-1” (Oncotarget, 2016).
pIC50: −log10 of the molar value.

Key:
Assay type in all cases: cell-based, human
HNDFs [1] = test: SA-β-gal senescence assay in HG-induced HNDFs
Procedure: (§1) Human normal dermal fibroblasts (HNDFs, CCD966SK) and human umbilical vein endothelial cells (HUVECs) were obtained from the Bioresource Collection and Research Center (BCRC), Hsinchu, Taiwan. HNDFs were grown in MEM containing 10% FBS, 2 mM L-glutamine, 100 U/mL penicillin and streptomycin at 37°C in a fully humidified atmosphere of 5% CO2. Likewise, HUVECs were grown in M-199 medium supplemented with ECGS, heparin, 10% FBS and 100 U/mL penicillin and streptomycin at 37°C in a fully humidified atmosphere of 5% CO2. High-glucose treatment was performed by treating cells with 15 or 30 mM D-glucose (HG) for 24-72 h.
Senescence-associated β-galactosidase (SA-β-gal) activity was determined in formaldehyde-fixed histochemical staining kit according to the manufacturer's instructions (Cell Signaling Technology, Danvers, […]). Briefly, cells were grown in 6-well plates at a density of 5 × 10^4 cells/well, and incubated with HG or test samples for 48 h (HUVECs) or 72 h (HNDFs). After incubation, cells were stained with SA-β-gal staining solution at pH 6.0 overnight and then the development of blue staining was observed and photographed under a bright-field microscope (Motic Electric Group, Xiamen, P.R. China).

HNDFs [2] = test: Flow cytometric detection of intracellular ROS (DCFH2-DA) in HNDFs
Procedure: Intracellular ROS accumulation was determined using the dye DCFH2-DA following a procedure described earlier. Briefly, HNDFs (1 × 10^5 cells/well) were seeded in 6-well plates and incubated with HG in the presence or absence of test samples for 24 h. At the end of the incubation, the culture supernatant was removed and cells were washed twice with PBS. DCFH2-DA (10 μM) was mixed with 500 μL MEM and added to the culture plate. After incubation for 30 minutes, cells were collected by trypsin and the fluorescence shift was quantified using a flow cytometer (Beckman Coulter). Data were acquired and analyzed using CXP software (Beckman Coulter).

HNDFs [3] = test: Cell proliferation, trypan blue exclusion assay in HG-induced HNDFs; settings: with HG (30 mM) for 72 h (Figure 2D)
Procedure: Cell proliferation was evaluated using trypan blue exclusion assay as described previously with minor modification. Cells were plated into 6-well plates at a density of 5 × 10^4 cells/well. After incubation overnight, cells were treated with test samples in the presence or absence of HG for 24-72 h. Cells exposed to 0.2% Trypan blue were then counted in a hemocytometer, and cells stained with Trypan blue were excluded. Percentage of viable cells was calculated based on the ratio of viable cells to total cell population in each well. The proliferation rate was calculated based on the number of viable cells in HG or sample-treated groups versus the NG-treated group.

HNDFs [4] = test: Cell-cycle analysis by flow cytometry (PI) in HG-induced HNDFs; settings: ANM 10 μM with HG (30 mM) for 72 h; HG 71.2%, NG 46.5%
Procedure: HNDFs at a density of 5 × 10^5 cells in 10 cm dishes were treated with ANM or NAC in the presence or absence of HG for 72 h. Cells were collected, washed with PBS and fixed in 95% cold-ethanol, and kept at −20°C overnight. The cell pellet was then washed again with PBS and centrifuged at 1500 × g for 5 min. The pellet was re-suspended in 1 mL PI/Triton X-100 (20 μg/mL PI, 0.1% Triton X-100 and 0.2 mg/mL RNAse) and incubated on ice for 30 min. The total cellular DNA content was analyzed with a flow cytometer (Beckman Coulter FC500). Data were acquired and analyzed using CXP software (Beckman Coulter).

[5] = system: SIRT-1, SIRT-3 and SIRT-6 mRNA; test: Q-PCR of SIRT genes in HNDFs; settings: ANM 10 μM, 72 h
Procedure: Total RNA was extracted from cultured HNDFs using Trizol Reagent (Thermo Fisher Scientific). Q-PCR analysis was performed using Applied Biosystems detection instruments and software. Forward and reverse primers (10 μM), and the working solution SYBR green, was used as a PCR master mix, under the following conditions: 96°C for 3 minutes followed by 40 cycles at 96°C for 1 minute, 50°C for 30 seconds and 72°C for 90 seconds. GAPDH was used as an internal standard to control for variability in amplification because of differences in starting mRNA concentrations. The copy number of each transcript was calculated as the relative copy number normalized by GAPDH copy number.

HNDFs [6] = test: Cytotoxicity of antcins against HNDFs (MTT assay); settings: Homo sapiens, 72 h, read-out: IC50 (50% inhibitory concentration) against HNDFs
Procedure: Figure 2 Effects of antcins on HG-induced senescence in HNDFs A. Type of antcins subjected to screen for potential anti-aging agents for skin aging. Names and chemical structures of the antcins are shown in the left and centrer column, respectively. The cytotoxic effects of antcins against HNDFs. Briefly, HNDFs were incubated with increasing concentrations (1, 5, 10 and 20 μM) of antcins including antcin A, antcin B, antcin C, antcin H, anticn K and antcin M for 72 h and the cell viability was determined by MTT assay. The 50% inhibitory concentrations (IC50) of each compound against HNDFs are shown in right column. B. Cells were incubated with antcin A (10 μM), antcin H (10 μM) and antcin M (10 μM) in the presence of HG (30 mM) for 72 h. Cellular senescence was determined by SA-β-gal activity. […] C. HNDFs were incubated with antcin A (10 μM), antcin H (10 μM) and antcin M (10 μM) in the presence of HG (30 mM) for 72 h. Senescence-associated marker proteins such as p16^INK4A, p21^CIP1 and SMP30 were determined by western blot analysis. D. To determine the effect of antcins on cell proliferation efficacy, HNDFs 5 × 10^4 cells/well in 6-well plates were incubated with antcins in the presence of HG (30 mM) for 72 h. Number of viable cells were quantified by the tryphan blue exclusion method. Results are expressed as mean ± S.E.M of three indipendent expriments. Statistical significance was et at ^ФP < 0.05 compared to NG vs HG and *P < 0.05 compared to HG vs. samples.
as §1
Cell viability was assessed by MTT colorimetric assay. Briefly, HNDFs (2 × 10^4 cells/well) or HUVECs (5 × 10^4 cells/well) were seeded in a 24-well culture plate. After treatment with HG (15 and 30 mM) in the presence or absence of samples for 24-72 h, culture media was withdrawn and incubated with MTT (1 mg/mL) in fresh medium for 2 h. The MTT formazan crystals were dissolved in 400 μL of DMSO and the samples were measured at 570 nm […] using an ELISA microplate reader (Bio-Tek Instruments, Winooski, VT). The percentage of cell viability (%) was calculated as (A570 of treated cells/A570 of untreated cells) × 100.

## C=C(CCC(C)C1CCC2C3=C(C(=O)C(O)C21C)C1(C)CCC(O)C(C)C1CC3)C(C)C(=O)O (centres unmarked) [ANM, antcin M]
HNDFs [1]; 10 μM with HG (30 mM) for 72 h, HG alone 9.59-fold (Figure 2B)
  SA-β-gal positive cells: 1.51 fold
HNDFs [1]; ANM 10 μM with HG (30 mM) for 72 h, HG alone 5.72-fold (Figure 4B)
  SA-β-gal positive cells: 1.89 fold
HNDFs [2]; ANM 10 μM or NAC 100 μM with HG (30 mM) for 24 h, HG alone 426.2%
  HG-induced ROS generation: 200.8%
HNDFs [2]; ANM 10 μM or NAC 100 μM without HG, 24 h
  ROS generation, treatment alone: did not significantly increase ROS generation
HNDFs [3]
  cell proliferation compared to the HG treatment group: two-fold increase
HNDFs [4]
  cell population in the G0/G1 phase: 49.5%
[5]
  SIRT-1, SIRT-3 and SIRT-6 levels compared to the control group: significantly increased
HNDFs [6]
  pIC50: < 4.30
